Tested on: F30-N16-1 RNA aptamer molecules
Test: Binding of F30-N16-1 RNA aptamer molecules with different fluorescent molecules (fluorescence spectrum, activation multiple)
Assay type: biochemical
Settings: for Maximum emission peak (nm) / Maximum excitation peak (nm): complex with F30-N16-1; for Activation Multiple: fluorophore with F30-N16-1
Procedure: Nucleic acid aptamer molecules of N16 or N16 mutants were prepared by using the commonly-used experimental method (I), 2.5 μM of nucleic acid aptamer molecules and 0.5 μM of fluorophore molecules were incubated in a detection buffer (40 mM of HEPES, pH 7.4, 125 mM of KCl, 5 mM of MgCl2, 5% DMSO), and the maximum excitation peak and the maximum emission peak of the fluorescence of the nucleic acid aptamer-fluorophore molecular complex were detected with Synergy Neo2 multifunctional enzyme-labeler. Synergy Neo2 multifunctional enzyme-labeler was used again to detect fluorescence intensity of the nucleic acid aptamer-fluorophore molecular complex under its maximum excitation and emission conditions, the control sample ([…] of fluorophore molecules without nucleic acid aptamer) was also measured under the same conditions, and the ratio of fluorescence intensity was calculated. For example, as for fluorescence of the complex formed by 2.5 μM of N16-1 nucleic acid aptamer and 0.5 μM of I-5-14 fluorophore molecules, the maximum excitation peak is 512 nm and the maximum emission peak is 574 nm. It was detected by the Synergy Neo2 multifunctional enzyme-labeler that the fluorescence intensity of the complex at an excitation condition of 512±10 nm and an emission condition of 574 nm±10 nm was 49,088, while the fluorescence intensity of the control (0.5 μM of I-5-14 fluorophore molecules) under the same detection conditions was 399, so the activation multiple of N16-1 nucleic acid aptamer to I-5-14 fluorophore molecules was 123.
F30-N16-1 RNA aptamer molecules were prepared by using the commonly-used experimental method (I), and were used for detecting basic properties, including fluorescence spectrum and fluorescence activation multiple, of the binding of I-5-14 analogues with N16.

Row | Compound | Maximum emission peak (nm) | Maximum excitation peak (nm) | Activation Multiple
1 | CN(CCO)c1ccc2cc(/C=C3\SC(=S)NC3=S)sc2c1 [I-5-66] | 748 | 666 | 81
2 | CCN1C(=O)S/C(=C\c2ccc(N(C)CCO)s2)C1=O [I-5-5] | 518 | 487 | 11
3 | CN(CCNS(C)(=O)=O)c1ccc(/C=C2\SC(=O)NC2=S)s1 [I-5-3] | 580 | 550 | 14
4 | Nc1ccc2nc(/C=C3\SC(=S)NC3=S)sc2c1 [I-5-72] | 721 | 636 | 14
5 | CN(C)c1ccc(/C=C2\SC(=O)NC2=S)s1 [I-5-8] | 582 | 554 | 15
6 | CN(C)c1ccc2cc(/C=C3\NC(=S)NC3=O)sc2c1 [I-5-67] | 652 | 516 | 7
7 | CN(CCO)c1ccc(/C=C2\OC(=O)NC2=O)s1 [I-5-1] | 500 | 460 | 14
8 | CN1C(=O)/C(=C/c2cc3ccc(N(CCO)CCO)cc3s2)SC1=S [I-5-68] | 663 | 536 | 9
9 | CN1CCc2cc(/C=C3\SC(=O)NC3=O)ccc21 [I-5-29] | 525 | 453 | 14
10 | CN(CCO)c1cc2sc(/C=C3\OC(=O)NC3=O)cc2s1 [I-5-55] | 627 | 513 | 14
11 | CN(CCO)c1ccc2cc(/C=C3\SC(=O)NC3=O)sc2c1 [I-5-65] | 605 | 462 | 35
12 | CN1C(=O)/C(=C/c2ccc3c(c2)SCCN3C)SC1=S [I-5-31] | 610 | 503 | 125
13 | CN1CCc2cc(/C=C3\NC(=S)NC3=O)c(Cl)cc21 [I-5-30] | 562 | 497 | 11
14 | O=C1NC(=S)N/C1=C\c1cc2c3c(c1)CCCN3CCC2 [I-5-50] | 597 | 512 | 7
15 | CN(C)c1ccc2c(c1)C(C)(C)c1cc(/C=C3\SC(=O)NC3=O)ccc1-2 [I-5-74] | 691 | 635 | 14
16 | CN1C(=O)O/C(=C\c2ccc(N(C)C)s2)C1=O [I-5-7] | 504 | 465 | 24
17 | CN(C)c1cc2sc(/C=C3\SC(=S)NC3=S)cc2s1 [I-5-52] | 725 | 686 | 7
18 | CN(C)c1ccc(/C=C2\SC(=S)N(CCC(=O)O)C2=O)cc1 [I-5-20] | 565 | 493 | 22
19 | CN(CCO)c1ccc2cc(/C=C3\SC(=S)NC3=O)sc2c1 [I-5-64] | 665 | 522 | 12
20 | CN(C)c1ccc(/C=C2\SC(=O)NC2=O)s1 [I-5-11] | 524 | 493 | 9
21 | CN(CCO)c1cc2sc(/C=C3\SC(=S)NC3=S)cc2s1 [I-5-58] | 725 | 692 | 1422

Row | Compound | Maximum emission peak (nm) | Maximum excitation peak (nm) | Activation Multiple
22 | CN(CCO)c1ccc2nc(/C=C3\NC(=S)NC3=O)sc2c1 [I-5-69] | 661 | 531 | 11
23 | CN(C)c1ccc(/C=C2\SC(=S)NC2=S)s1 [I-5-10] | 642 | 626 | 11
24 | CN1C(=O)S/C(=C\c2nc3ccc(N(C)CCO)cc3s2)C1=O [I-5-71] | 627 | 471 | 6
25 | CN(CCO)c1ccc(-c2ccc(/C=C3\SC(=O)NC3=O)s2)s1 [I-5-62] | 689 | 529 | 256
26 | CN(CCO)c1cc2c(s1)-c1sc(/C=C3\SC(=S)NC3=S)cc1C2(C)C [I-5-82] | 801 | 748 | 3
27 | CN(C)c1ccc(/C=C2\SC(=S)N(N)C2=O)s1 [I-5-9] | 578 | 552 | 17
28 | CC1(C)c2cc(/C=C3\SC(=S)NC3=O)ccc2-c2ccc(N(CCO)CCO)cc21 [I-5-73] | 731 | 681 | 12
29 | CC1=CC(C)(C)N(C)c2ccc(/C=C3\SC(=O)NC3=S)cc21 [I-5-42] | 627 | 527 | 11
30 | O=C1NC(=S)N/C1=C\c1ccc(N(CCO)CCO)s1 [I-5-6] | 550 | 536 | 23
31 | CCN1C(=O)/C(=C/c2ccc3c(c2)SCCN3C)NC1=S [I-5-35] | 585 | 487 | 10
32 | CN(CCO)c1ccc2nc(/C=C3\SC(=S)N(CCC(=O)O)C3=O)sc2c1 [I-5-70] | 686 | 556 | 12
33 | Cc1cc(N(C)CCNC(=O)CCOCCOCCO)ccc1/C=C1\SC(=O)NC1=S [I-5-27] | 603 | 565 | 11
34 | CN1C(=O)/C(=C/c2cc3sc(N(CCO)CCO)cc3s2)NC1=S [I-5-60] | 626 | 552 | 8
35 | CN(CCO)c1cc2c(s1)-c1sc(/C=C3\SC(=S)NC3=O)cc1C2(C)C [I-5-83] | 733 | 685 | 4
36 | CN1C(=O)/C(=C/c2cc3sc(N(CCO)CCO)cc3s2)SC1=S [I-5-59] | 655 | 581 | 12
37 | CN1C(=O)/C(=C/c2ccc3c(c2)CCCN3C)NC1=S [I-5-40] | 548 | 473 | 8
38 | CN(C)c1ccc(/C=C2\NC(=S)NC2=O)s1 [I-5-12] | 555 | 535 | 11
39 | CN(CCO)c1ccc2c(c1)C(C)(C)c1cc(/C=C3\NC(=S)NC3=O)ccc1-2 [I-5-76] | 774 | 724 | 9
40 | CN(C)c1ccc(/C=C2\SC(=O)NC2=S)cc1 [I-5-21] | 605 | 569 | 24
41 | CN(CCO)c1ccc(/C=C2\SC(=S)NC2=S)s1 [I-5-4] | 638 | 625 | 47

From patent publication US20240392302A1, “METHOD FOR DETECTING AND QUANTIFYING RNA” (FLUORESCENCE DIAGNOSIS (SHANGHAI) BIOTECH COMPANY LTD., priority 2021, published 2024)
